Values belong to the compound of their own block, whether it stands above or below them.
Experiment: skin permeability, static Franz diffusion cells
Type: in vitro ADME, pig
Settings: for permeation of epidermis: 6 h experiment, donor 0.1 mg/mL; for recovery at 6 h, 0.1 mg/mL: pig; for recovery at 6 h, 0.1 mg/mL / amount in receptor fluid after 6 h (%) / amount on/in skin (%) / recovery (%): w/w %; for recovery at 6 h, 0.1 mg/mL / recovery (%): sum of receptor compartment after 6 h and overnight skin extraction; for amount on/in skin (%): overnight skin extraction after 6 h
Method: For the permeability experiments, ultra-performance liquid chromatography-electrospray ionization tandem mass spectroscopy (UPLC)-ESI-MS/MS analysis was carried out using a Xevo TQ-S micro triple quadrupole mass spectrometer equipped with an electrospray interface and coupled to an Acquity UPLC H-Class Plus system from Waters. Separation was achieved on an ACE Excel C18-PFP column (75 × 2.1 mm, 1.7 μm) from Advanced Chromatography Technologies Ltd. (Aberdeen, Scotland). Mobile phase A consisted of 0.1% formic acid and 5% acetonitrile in water, whereas mobile phase B consisted of 0.1% formic acid and 5% water in acetonitrile. The gradient program used was as follows: 20% B (0–2 min), 20–80% B (2–9 min), 80–95% B (9–9.1 min), 95% B (9.1–12 min), 95–20% B (12–12.1 min), 20% B (12.1–15 min). The flow rate was set to 0.3 mL/min and the injection volume was 2 μL. Analysis was performed in positive ionization mode using a Multiple Reaction Monitoring (MRM) method. The optimal parameters were capillary voltage 1.5 (kV), desolvation temperature 650 °C, desolvation gas 850 L/h, and cone 100 L/h.
The Franz diffusion cell experiment was based on the OECD Test Guidelines.[35] Static Franz diffusion cells equipped with pig ex vivo epidermis were used to assess the permeability of isosorbide bis-epoxides 2 and 3. Freshly cut pig ears were received frozen and stored at −20 °C until used for permeability assessment. One day before the experiment, the ears were transferred at +4 °C and allowed to thaw. The ears were then washed, shaved, and carefully cut with a Watson Dermatome skin graft knife to obtain 0.1 mm pieces of the epidermis layer. The integrity of the skin (transparent and intact) was determined by ocular inspection. Thereafter, the epidermis layer was cut and positioned between the donor and receptor compartment of each Franz cell. The receptor compartments were filled with 5 mL of ethanol/PBS (1:1) and equipped with a small magnetic stir bar to ensure mixing while maintaining a constant temperature of the circulating water at 37 °C. To equilibrate the skin, the upper chamber was filled with 0.5 mL of ethanol/PBS (1:1) which was later removed and replaced with the donor solution (50 μL) containing either 2 or 3 (0.1 mg/mL) or DGEBA (0.1 mg/mL) used as a positive control. A procedural blank containing only 50 μL of ethanol/PBS (1:1) in the donor compartment was also included in the experimental setup. Samples of 100 μL were collected after 0–2 min, 1, 2, 3, 4, 5, and 6 h. At each timepoint, a sample aliquot was removed and 100 μL of ethanol/PBS (1:1) was added to the receptor compartment to keep the volume constant. After 6 h, the skin from each Franz cell was extracted overnight in 5 mL of ethanol/PBS (1,1). Triplicate experiments were performed for each compound. The obtained samples were analyzed with UPLC-ESI-MS/MS (see Figure S2 for parameters) and quantification was based on external calibration curves. The limit of quantification (LOQ) was determined by the analysis of the analyte at low concentration and was calculated as 10 times the signal-to-noise ratio.

[1] = Extract: skin extracted overnight after 6 h

permeation of epidermis: observed | Average (µM) [1]: 0.345 µM | Average (µg/ml) [1]: 0.161 µg/mL | Replicate 1 [1]: 0.203 µg/mL | Replicate 2 [1]: 0.139 µg/mL | Replicate 3 [1]: 0.141 µg/mL | recovery at 6 h, 0.1 mg/mL: 48% | Average (µM) (receptor fluid, timepoint 0 h): 0 µM | Average (µg/ml) (receptor fluid, timepoint 0 h): 0 µg/mL | Replicate 1 (µg/ml) (receptor fluid, timepoint 0 h): < LOQ | Replicate 2 (µg/ml) (receptor fluid, timepoint 0 h): < LOQ | Replicate 3 (µg/ml) (receptor fluid, timepoint 0 h): < LOQ | Average (µM) (receptor fluid, timepoint 1 h): 0.123 µM | Average (µg/ml) (receptor fluid, timepoint 1 h): 0.0574 µg/mL | Replicate 1 (receptor fluid, timepoint 1 h): 0.0637 µg/mL | Replicate 2 (receptor fluid, timepoint 1 h): 0.0511 µg/mL | Average (µM) (receptor fluid, timepoint 2 h): 0.490 µM | Average (µg/ml) (receptor fluid, timepoint 2 h): 0.228 µg/mL | Replicate 1 (receptor fluid, timepoint 2 h): 0.299 µg/mL | Replicate 2 (receptor fluid, timepoint 2 h): 0.233 µg/mL | Replicate 3 (receptor fluid, timepoint 2 h): 0.154 µg/mL | Average (µM) (receptor fluid, timepoint 3 h): 0.669 µM | Average (µg/ml) (receptor fluid, timepoint 3 h): 0.312 µg/mL | Replicate 1 (receptor fluid, timepoint 3 h): 0.437 µg/mL | Replicate 2 (receptor fluid, timepoint 3 h): 0.320 µg/mL | Replicate 3 (receptor fluid, timepoint 3 h): 0.180 µg/mL | Average (µM) (receptor fluid, timepoint 4 h): 0.796 µM | Average (µg/ml) (receptor fluid, timepoint 4 h): 0.371 µg/mL | Replicate 1 (receptor fluid, timepoint 4 h): 0.538 µg/mL | Replicate 2 (receptor fluid, timepoint 4 h): 0.362 µg/mL | Replicate 3 (receptor fluid, timepoint 4 h): 0.213 µg/mL | Average (µM) (receptor fluid, timepoint 5 h): 0.721 µM | Average (µg/ml) (receptor fluid, timepoint 5 h): 0.336 µg/mL | Replicate 1 (receptor fluid, timepoint 5 h): 0.500 µg/mL | Replicate 2 (receptor fluid, timepoint 5 h): 0.323 µg/mL | Replicate 3 (receptor fluid, timepoint 5 h): 0.186 µg/mL | Average (µM) (receptor fluid, timepoint 6 h): 0.679 µM | Average (µg/ml) (receptor fluid, timepoint 6 h): 0.317 µg/mL | Replicate 1 (receptor fluid, timepoint 6 h): 0.474 µg/mL | Replicate 2 (receptor fluid, timepoint 6 h): 0.309 µg/mL | Replicate 3 (receptor fluid, timepoint 6 h): 0.166 µg/mL | amount in receptor fluid after 6 h (%): 31.7 ± 12.6% | amount on/in skin (%): 16.1 ± 3.0% | recovery (%): 47.7 ± 15.6%
Structure (SMILES): O=C(OC1COC2C(OC(=O)c3ccc(CC4CO4)cc3)COC12)c1ccc(CC2CO2)cc1 [Compound 2, (3R,3aR,6S,6aR)-3,6-O-Bis[4-(3,4-epoxypropyl)benzoyl]-1,4:3,6-dianhydro-D-glucitol]

permeation of epidermis: observed | Average (µM) [1]: 0.0736 µM | Average (µg/ml) [1]: 0.0323 µg/mL | Replicate 1 [1]: 0.0650 µg/mL | Replicate 2 [1]: 0.000965 µg/mL | Replicate 3 [1]: 0.0309 µg/mL | recovery at 6 h, 0.1 mg/mL: 25% | Average (µM) (receptor fluid, timepoint 0 h): 0 µM | Average (µg/ml) (receptor fluid, timepoint 0 h): 0 µg/mL | Replicate 1 (µg/ml) (receptor fluid, timepoint 0 h): < LOQ | Replicate 2 (µg/ml) (receptor fluid, timepoint 0 h): < LOQ | Replicate 3 (µg/ml) (receptor fluid, timepoint 0 h): < LOQ | Average (µM) (receptor fluid, timepoint 1 h): 0.187 µM | Average (µg/ml) (receptor fluid, timepoint 1 h): 0.0818 µg/mL | Replicate 1 (receptor fluid, timepoint 1 h): 0.0897 µg/mL | Replicate 2 (receptor fluid, timepoint 1 h): 0.110 µg/mL | Replicate 3 (receptor fluid, timepoint 1 h): 0.0460 µg/mL | Average (µM) (receptor fluid, timepoint 2 h): 0.465 µM | Average (µg/ml) (receptor fluid, timepoint 2 h): 0.204 µg/mL | Replicate 1 (receptor fluid, timepoint 2 h): 0.139 µg/mL | Replicate 2 (receptor fluid, timepoint 2 h): 0.292 µg/mL | Replicate 3 (receptor fluid, timepoint 2 h): 0.180 µg/mL | Average (µM) (receptor fluid, timepoint 3 h): 0.563 µM | Average (µg/ml) (receptor fluid, timepoint 3 h): 0.247 µg/mL | Replicate 1 (receptor fluid, timepoint 3 h): 0.191 µg/mL | Replicate 2 (receptor fluid, timepoint 3 h): 0.347 µg/mL | Replicate 3 (receptor fluid, timepoint 3 h): 0.203 µg/mL | Average (µM) (receptor fluid, timepoint 4 h): 0.542 µM | Average (µg/ml) (receptor fluid, timepoint 4 h): 0.238 µg/mL | Replicate 1 (receptor fluid, timepoint 4 h): 0.202 µg/mL | Replicate 2 (receptor fluid, timepoint 4 h): 0.309 µg/mL | Replicate 3 (receptor fluid, timepoint 4 h): 0.203 µg/mL | Average (µM) (receptor fluid, timepoint 5 h): 0.539 µM | Average (µg/ml) (receptor fluid, timepoint 5 h): 0.236 µg/mL | Replicate 1 (receptor fluid, timepoint 5 h): 0.204 µg/mL | Replicate 2 (receptor fluid, timepoint 5 h): 0.306 µg/mL | Replicate 3 (receptor fluid, timepoint 5 h): 0.198 µg/mL | Average (µM) (receptor fluid, timepoint 6 h): 0.495 µM | Average (µg/ml) (receptor fluid, timepoint 6 h): 0.217 µg/mL | Replicate 1 (receptor fluid, timepoint 6 h): 0.165 µg/mL | Replicate 2 (receptor fluid, timepoint 6 h): 0.298 µg/mL | Replicate 3 (receptor fluid, timepoint 6 h): 0.189 µg/mL | amount in receptor fluid after 6 h (%): 21.7 ± 5.8% | amount on/in skin (%): 3.2 ± 2.6% | recovery (%): 24.9 ± 8.4%
Structure (SMILES): c1cc(CC2CO2)ccc1CO[C@H]1CO[C@H]2[C@@H]1OC[C@H]2OCc1ccc(CC2CO2)cc1 (stereo partly drawn) [Compound 3, (3R,3aR,6S,6aR)-3,6-O-Bis[4-(3,4-epoxypropyl)benzyl]-1,4:3,6-dianhydro-D-glucitol]

Reference: publication PMC9945177, “Nature-Derived Epoxy Resin Monomers with Reduced Sensitizing Capacity—Isosorbide-Based Bis-Epoxides” (Chemical Research in Toxicology, 2023)
